Results from PMC5992652, “Insight into the functional roles of Glu175 in the hyperthermostable xylanase XYL10C-ΔN through structural analysis and site-saturation mutagenesis” (Biotechnology for Biofuels, 2018).

What was measured:
XYL10C-ΔN = biological target: T1, XYL10C-ΔN (Bispora sp. MEY-1, UniProt D0QF43); test: HPAEC of hydrolysis products; format: biochemical; settings: pH 4.5, 70 °C, 16 h, Na2HPO4-citric acid; products mainly xylose and xylobiose
T1 construct: 18-residue signal peptide and the next 66 N-terminal residues removed; pPIC9, Pichia pastoris GS115; deglycosylated with Endo Hf; two monomers in asymmetric unit

XYL10C = biological target: T2, XYL10C (Bispora sp. MEY-1, UniProt D0QF43); test: HPAEC of hydrolysis products; format: biochemical; settings: pH 4.5, 70 °C, 16 h, Na2HPO4-citric acid; products mainly xylose and xylobiose
T2 construct: 18-residue signal peptide
T2 sequence (D0QF43 19-424): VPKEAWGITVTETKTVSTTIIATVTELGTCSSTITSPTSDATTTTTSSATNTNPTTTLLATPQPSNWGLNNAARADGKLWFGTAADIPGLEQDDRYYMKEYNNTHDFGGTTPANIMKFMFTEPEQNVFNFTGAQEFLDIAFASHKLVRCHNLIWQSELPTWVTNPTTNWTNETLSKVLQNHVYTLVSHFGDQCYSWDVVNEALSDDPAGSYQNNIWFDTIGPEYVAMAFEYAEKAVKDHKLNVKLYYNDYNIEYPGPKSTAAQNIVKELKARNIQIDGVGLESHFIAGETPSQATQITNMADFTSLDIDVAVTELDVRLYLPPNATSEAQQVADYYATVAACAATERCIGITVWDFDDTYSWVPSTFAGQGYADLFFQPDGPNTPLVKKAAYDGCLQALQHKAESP

Compound | HPAEC of hydrolysis products (XYL10C-ΔN) | HPAEC of hydrolysis products (XYL10C)
OC1OC[C@@H](O[C@@H]2OC[C@@H](O[C@@H]3OC[C@@H](O)[C@H](O)[C@H]3O)[C@H](O)[C@H]2O)[C@H](O)[C@H]1O (stereo partly shown) [X3, xylotriose] | employed an endo-mode of action to cleave xylotriose, xylotetraose, xylopentaose, xylohexaose | employed an endo-mode of action to cleave xylotriose, xylotetraose, xylopentaose, xylohexaose
OC1OC[C@@H](O[C@@H]2OC[C@@H](O[C@@H]3OC[C@@H](O[C@@H]4OC[C@@H](O[C@@H]5OC[C@@H](O[C@@H]6OC[C@@H](O)[C@H](O)[C@H]6O)[C@H](O)[C@H]5O)[C@H](O)[C@H]4O)[C@H](O)[C@H]3O)[C@H](O)[C@H]2O)[C@H](O)[C@H]1O (stereo partly shown) [X6, xylohexaose] | employed an endo-mode of action to cleave xylotriose, xylotetraose, xylopentaose, xylohexaose | employed an endo-mode of action to cleave xylotriose, xylotetraose, xylopentaose, xylohexaose
